The test system of one data set is human erythrocytes. Description: Hemolytic activity (MHC), Protocol B, 18 hours. Particulars: maximal peptide concentration showing no hemolysis after 18 hours, hRBC, Table 14. As for the experimental part: In order to evaluate the biological activities of the D-enantiomeric peptides, namely D-NAL and D-NKD, the hemolytic activity of the peptides against human erythrocytes was determined as the maximal peptide concentration that produces no hemolysis after 18 hours of incubation at 37° C.
Measurement of Hemolytic Activity—Protocol A: Peptide samples were added to 1% human erythrocytes in phosphate buffered saline (0.08M NaCl; 0.043M Na2PO4; 0.011M KH2PO4) and reactions were incubated at 37° C. for 12 hours in microtiter plates. Peptide samples were diluted 2 fold in order to determine the concentration that produced no hemolysis. […] Hemoglobin release was determined spectrophotometrically at 562 nm. The hemolytic titer was the highest 2-fold dilution of the peptide that still caused release of hemoglobin from erythrocytes. The control for no release of hemoglobin was a sample of 1% erythrocytes without any peptide added. […] Peptide samples were diluted 2 fold in order to determine the concentration that produced no hemolysis. […] Hemoglobin release was determined spectrophotometrically at 570 nm. The hemolytic titer was the highest 2-fold dilution of the peptide that still caused release of hemoglobin from erythrocytes. The control for no release of hemoglobin was a sample of 1% erythrocytes without any peptide added.

The subject of data set [1] is Pseudomonas aeruginosa strains. Particulars: for MIC (μg/ml) CP 204: Pseudomonas aeruginosa clinical isolate CP 204; for MIC (μg/ml) M 2: Pseudomonas aeruginosa clinical isolate M 2; for MIC (μg/ml) PA 14: Pseudomonas aeruginosa clinical isolate PA 14; for MIC (μg/ml) PAK: Pseudomonas aeruginosa clinical isolate PAK; for MIC (μg/ml) PAO 1: Pseudomonas aeruginosa clinical isolate PAO 1; for MIC (μg/ml) WR 5: Pseudomonas aeruginosa clinical isolate WR 5; for MIC (μg/ml) GM: geometric mean of the MIC values for the 6 Pseudomonas aeruginosa clinical isolates. As for the experimental part:
Pseudomonas aeruginosa strains used in this study are a diverse group of clinical isolates from different places in the world. […] The geometric mean MIC values from six Pseudomonas aeruginosa strains were calculated to provide an overall evaluation of antimicrobial activity of these peptides against Pseudomonas aeruginosa. Fold improvement was calculated by comparing the geometric mean MIC value of each peptide to that of the parent peptide V681.
Measurement of Antimicrobial Activity—Minimal inhibitory concentrations (MICs) were determined using a standard microtiter dilution method in LB (Luria-Bertani) no-salt medium (10 g of tryptone and 5 g of yeast extract per liter). Briefly, cells were grown overnight at 37° C. in LB and diluted in the same medium. […] Plates were incubated at 37° C. for 24 hours and MICs determined as the lowest peptide concentration that inhibited growth. Alternatively, minimal inhibitory concentrations were determined using a standard microtiter dilution method in a Mueller-Hinton (MH) medium. Briefly, cells were grown overnight at 37° C. in MH broth and diluted in the same medium. […] Plates were incubated at 37° C. for 24 hours and MICs determined as the lowest peptide concentration that inhibited growth. However, for MIC determination of Pseudomonas aeruginosa clinical isolates, brain heart infusion (BH1) medium was used instead of MH broth. In addition, the bacteria were diluted to a final inoculum of 1×10^6 colony-forming units/ml.
For the Leu-substituted peptides, the hemolytic activity against human erythrocytes was determined as the maximal peptide concentration that produces no hemolysis after 18 hours of incubation at 37° C. Antimicrobial activity of the peptides was determined on a diverse group of Pseudomonas aeruginosa clinical isolates. […] The geometric mean MIC values from six Pseudomonas strains in Table 14 were calculated to provide an overall evaluation of antimicrobial activity of the peptides with different hydrophobicities.

Converted amounts (≈) assume the structure as drawn.

Turning to `CC[C@H](C)[C@H](NC(=O)[C@H](CC(C)C)NC(=O)[C@H](CCCCN)NC(=O)[C@H](CC(C)C)NC(=O)[C@H](C)NC(=O)[C@@H](NC(=O)[C@H](Cc1c[nH]cn1)NC(=O)[C@H](CC(C)C)NC(=O)[C@@H](NC(=O)[C@@H](NC(=O)[C@H](CCCCN)NC(=O)[C@H](CCCCN)NC(=O)[C@H](CC(C)C)NC(=O)[C@H](CO)NC(=O)[C@H](CCCCN)NC(=O)[C@H](Cc1ccccc1)NC(=O)[C@@H](NC(=O)[C@H](CCCCN)NC(=O)[C@H](CC(C)C)NC(=O)[C@H](Cc1ccccc1)NC(=O)[C@H](CO)NC(=O)[C@H](CCCCN)NC(=O)[C@H](Cc1c[nH]c2ccccc12)NC(=O)[C@H](CCCCN)NC(C)=O)[C@@H](C)O)[C@@H](C)O)C(C)C)[C@@H](C)O)C(=O)N[C@@H](CO)C(=O)N[C@@H](CO)C(N)=O` [A12L/A23L], the “Hemolytic activity MHC” value in the data set with human erythrocytes was 15.6 µg/mL. In data set [1], the “MIC (μg/ml) CP 204” value came out at 7.8 µg/mL (≈ 2.54 µM), the “MIC (μg/ml) M 2” value is 31.3 µg/mL (≈ 10.2 µM), the “MIC (μg/ml) PA 14” value amounted to 62.5 µg/mL (≈ 20.3 µM) and the “MIC (μg/ml) PAK” value stood at 15.6 µg/mL (≈ 5.07 µM). Moreover, in data set [1], the “MIC (μg/ml) PAO 1” value came out at 15.6 µg/mL (≈ 5.07 µM), the “MIC (μg/ml) WR 5” value was determined as 250.0 µg/mL (≈ 81.3 µM) and the “MIC (μg/ml) GM” value was determined as 31.2 µg/mL (≈ 10.1 µM).
In the case of `CC[C@H](C)[C@H](NC(=O)[C@H](C)NC(=O)[C@H](CCCCN)NC(=O)[C@H](CC(C)C)NC(=O)[C@H](C)NC(=O)[C@@H](NC(=O)[C@H](Cc1c[nH]cn1)NC(=O)[C@H](CC(C)C)NC(=O)[C@@H](NC(=O)[C@@H](NC(=O)[C@H](CCCCN)NC(=O)[C@H](CCCCN)NC(=O)[C@H](CC(C)C)NC(=O)[C@H](CO)NC(=O)[C@H](CCCCN)NC(=O)[C@H](Cc1ccccc1)NC(=O)[C@@H](NC(=O)[C@H](CCCCN)NC(=O)[C@H](CC(C)C)NC(=O)[C@H](Cc1ccccc1)NC(=O)[C@H](CO)NC(=O)[C@H](CCCCN)NC(=O)[C@H](Cc1c[nH]c2ccccc12)NC(=O)[C@H](CCCCN)NC(C)=O)[C@@H](C)O)[C@@H](C)O)C(C)C)[C@@H](C)O)C(=O)N[C@@H](CO)C(=O)N[C@@H](CO)C(N)=O` [Peptide A12L], the “Hemolytic activity MHC” value in the data set with human erythrocytes turned out to be 31.3 µg/mL. For the same compound, in data set [1], the “MIC (μg/ml) CP 204” value turned out to be 15.6 µg/mL (≈ 5.14 µM), the “MIC (μg/ml) M 2” value worked out at 15.6 µg/mL (≈ 5.14 µM), the “MIC (μg/ml) PA 14” value was found to be 31.3 µg/mL (≈ 10.3 µM) and the “MIC (μg/ml) PAK” value was 31.3 µg/mL (≈ 10.3 µM). For the same compound, in data set [1], the “MIC (μg/ml) PAO 1” value came to 15.6 µg/mL (≈ 5.14 µM), the “MIC (μg/ml) WR 5” value is 62.5 µg/mL (≈ 20.6 µM) and the “MIC (μg/ml) GM” value was determined as 24.8 µg/mL (≈ 8.18 µM).
Consider “Ac-KWKSFLKTFKSAKKTVLHTALKLISS-NH2 [Peptide A23L]”, for which the “Hemolytic activity MHC” value in the data set on human erythrocytes was 62.5 µg/mL. In data set [1], the “MIC (μg/ml) CP 204” value amounted to 15.6 µg/mL, the “MIC (μg/ml) M 2” value was found to be 31.3 µg/mL, the “MIC (μg/ml) PA 14” value is 31.3 µg/mL and the “MIC (μg/ml) PAK” value is 62.5 µg/mL. In data set [1], the “MIC (μg/ml) PAO 1” value came to 31.3 µg/mL, the “MIC (μg/ml) WR 5” value turned out to be 62.5 µg/mL and the “MIC (μg/ml) GM” value was determined as 35.1 µg/mL.

Values taken from patent publication US8252737B2, “Antimicrobial peptides and methods of use” (priority 2004, dated 2012).
